# Species on record: Rattus norvegicus
# Assay: Open TG-GATES - Regimen: Single
# Format: toxicity, organism-based, Sprague-Dawley
# Design: regimen Single, gender Male, age 6 weeks
# Conditions: in vivo, po, route gavage; for Bas / Eos / Hb / Ht / Lym / MCH / MCHC / MCV / Mono / Neu / Plat / RBC / Ret / WBC: tissue Blood; for KIDNEY_L / KIDNEY_R / KIDNEY_TOTAL: tissue Kidney; for LIVER: tissue Liver; for A/G / ALP / ALT / AST / BUN / CRE / Ca / Cl / DBIL / GLC / IP / K / LDH / Na / PL / RALB / TBIL / TC / TG / TP / gamma-GTP: tissue Plasma
# [1] = 30 mg/kg, 3 h, dose level Middle
# [2] = 30 mg/kg, 6 h, dose level Middle
# [3] = 30 mg/kg, 9 h, dose level Middle
# [4] = 30 mg/kg, 24 h, dose level Middle
# [5] = 100 mg/kg, 3 h, dose level High
# [6] = 100 mg/kg, 6 h, dose level High
# [7] = 100 mg/kg, 9 h, dose level High
# [8] = 100 mg/kg, 24 h, dose level High
compound,measurement,setting,value
Cc1ccc2cc3c(ccc4ccccc43)c3c2c1CC3 [3-METHYLCHOLANTHRENE],TERMINAL_BW,[1],211.6 g
same,Bas,[1],0%
same,Eos,[1],0.8%
same,Hb,[1],12.5 g/dL
same,Ht,[1],38.3%
same,Lym,[1],73.4%
same,MCH,[1],20.6 pg
same,MCHC,[1],32.6%
same,MCV,[1],63.1 fL
same,Mono,[1],3.6%
same,Neu,[1],21.4%
same,Plat,[1],120.7 x10_4/uL
same,RBC,[1],607.4 x10_4/ul
same,Ret,[1],10.1%
same,WBC,[1],93.9 x10_2/uL
same,KIDNEY_L,[1],0.9 g
same,KIDNEY_R,[1],0.9 g
same,KIDNEY_TOTAL,[1],1.8 g
same,LIVER,[1],9.5 g
same,A/G,[1],1
same,ALP,[1],1634.6 IU/L
same,ALT,[1],41.6 IU/L
same,AST,[1],76 IU/L
same,BUN,[1],12.6 mg/dL
same,CRE,[1],0.1 mg/dL
same,Ca,[1],10.9 mg/dL
same,Cl,[1],103.3 meq/L
same,DBIL,[1],0 mg/dL
same,GLC,[1],177.4 mg/dL
same,IP,[1],8.2 mg/dL
same,K,[1],4.2 meq/L
same,LDH,[1],224.4 IU/L
same,Na,[1],139.9 meq/L
same,PL,[1],185.8 mg/dL
same,RALB,[1],2.9 g/dL
same,TBIL,[1],0.008 mg/dL
same,TC,[1],87.2 mg/dL
same,TG,[1],201.5 mg/dL
same,TP,[1],5.7 g/dL
same,gamma-GTP,[1],0.6 IU/L
same,TERMINAL_BW,[2],206.2 g
same,Bas,[2],0%
same,Eos,[2],0%
same,Hb,[2],12.9 g/dL
same,Ht,[2],39.5%
same,Lym,[2],77.6%
same,MCH,[2],20.7 pg
same,MCHC,[2],32.7%
same,MCV,[2],63.5 fL
same,Mono,[2],3.6%
same,Neu,[2],17.2%
same,Plat,[2],124.3 x10_4/uL
same,RBC,[2],622.8 x10_4/ul
same,Ret,[2],9%
same,WBC,[2],124.3 x10_2/uL
same,KIDNEY_L,[2],0.9 g
same,KIDNEY_R,[2],0.9 g
same,KIDNEY_TOTAL,[2],1.8 g
same,LIVER,[2],9 g
same,A/G,[2],1
same,ALP,[2],1407.6 IU/L
same,ALT,[2],35 IU/L
same,AST,[2],66 IU/L
same,BUN,[2],9 mg/dL
same,CRE,[2],0.1 mg/dL
same,Ca,[2],10.7 mg/dL
same,Cl,[2],104.4 meq/L
same,DBIL,[2],0 mg/dL
same,GLC,[2],169 mg/dL
same,IP,[2],8.9 mg/dL
same,K,[2],4.3 meq/L
same,LDH,[2],174.6 IU/L
same,Na,[2],140.3 meq/L
same,PL,[2],158.2 mg/dL
same,RALB,[2],2.9 g/dL
same,TBIL,[2],0.008 mg/dL
same,TC,[2],80.8 mg/dL
same,TG,[2],101.9 mg/dL
same,TP,[2],5.7 g/dL
same,gamma-GTP,[2],0.7 IU/L
same,TERMINAL_BW,[3],206.5 g
same,Bas,[3],0%
same,Eos,[3],0.6%
same,Hb,[3],12.7 g/dL
same,Ht,[3],39.4%
same,Lym,[3],73.2%
same,MCH,[3],20.7 pg
same,MCHC,[3],32.2%
same,MCV,[3],64.3 fL
same,Mono,[3],3.6%
same,Neu,[3],21.6%
same,Plat,[3],127.5 x10_4/uL
same,RBC,[3],612.8 x10_4/ul
same,Ret,[3],9.1%
same,WBC,[3],119.4 x10_2/uL
same,KIDNEY_L,[3],0.9 g
same,KIDNEY_R,[3],0.9 g
same,KIDNEY_TOTAL,[3],1.8 g
same,LIVER,[3],8.6 g
same,A/G,[3],1
same,ALP,[3],1625.8 IU/L
same,ALT,[3],34.6 IU/L
same,AST,[3],64.2 IU/L
same,BUN,[3],10.4 mg/dL
same,CRE,[3],0.1 mg/dL
same,Ca,[3],10.5 mg/dL
same,Cl,[3],103.9 meq/L
same,DBIL,[3],0.002 mg/dL
same,GLC,[3],178.4 mg/dL
same,IP,[3],10.2 mg/dL
same,K,[3],4.5 meq/L
same,LDH,[3],153.6 IU/L
same,Na,[3],141.7 meq/L
same,PL,[3],160 mg/dL
same,RALB,[3],2.8 g/dL
same,TBIL,[3],0.004 mg/dL
same,TC,[3],84 mg/dL
same,TG,[3],109.2 mg/dL
same,TP,[3],5.6 g/dL
same,gamma-GTP,[3],0.8 IU/L
same,TERMINAL_BW,[4],216.2 g
same,Bas,[4],0%
same,Eos,[4],0.2%
same,Hb,[4],12.6 g/dL
same,Ht,[4],38.1%
same,Lym,[4],80.6%
same,MCH,[4],20.6 pg
same,MCHC,[4],32.9%
same,MCV,[4],62.6 fL
same,Mono,[4],3.8%
same,Neu,[4],14.2%
same,Plat,[4],127.8 x10_4/uL
same,RBC,[4],608 x10_4/ul
same,Ret,[4],8%
same,WBC,[4],107.4 x10_2/uL
same,KIDNEY_L,[4],0.9 g
same,KIDNEY_R,[4],0.9 g
same,KIDNEY_TOTAL,[4],1.9 g
same,LIVER,[4],11 g
same,A/G,[4],1
same,ALP,[4],2072.4 IU/L
same,ALT,[4],41.2 IU/L
same,AST,[4],77.2 IU/L
same,BUN,[4],13.7 mg/dL
same,CRE,[4],0.1 mg/dL
same,Ca,[4],10.9 mg/dL
same,Cl,[4],103.4 meq/L
same,DBIL,[4],0 mg/dL
same,GLC,[4],173.8 mg/dL
same,IP,[4],7.1 mg/dL
same,K,[4],4.7 meq/L
same,LDH,[4],281.4 IU/L
same,Na,[4],141.5 meq/L
same,PL,[4],165.2 mg/dL
same,RALB,[4],2.8 g/dL
same,TBIL,[4],0.004 mg/dL
same,TC,[4],82.6 mg/dL
same,TG,[4],152.7 mg/dL
same,TP,[4],5.5 g/dL
same,gamma-GTP,[4],0.9 IU/L
same,TERMINAL_BW,[5],211 g
same,Bas,[5],0%
same,Eos,[5],1%
same,Hb,[5],12.4 g/dL
same,Ht,[5],38.7%
same,Lym,[5],74.4%
same,MCH,[5],20.1 pg
same,MCHC,[5],32.2%
same,MCV,[5],62.6 fL
same,Mono,[5],3.2%
same,Neu,[5],21%
same,Plat,[5],125.2 x10_4/uL
same,RBC,[5],618.4 x10_4/ul
same,Ret,[5],9.2%
same,WBC,[5],117.6 x10_2/uL
same,KIDNEY_L,[5],0.9 g
same,KIDNEY_R,[5],0.9 g
same,KIDNEY_TOTAL,[5],1.8 g
same,LIVER,[5],9.5 g
same,A/G,[5],1
same,ALP,[5],1507 IU/L
same,ALT,[5],44.4 IU/L
same,AST,[5],77.4 IU/L
same,BUN,[5],12.9 mg/dL
same,CRE,[5],0.1 mg/dL
same,Ca,[5],10.8 mg/dL
same,Cl,[5],101.9 meq/L
same,DBIL,[5],0.002 mg/dL
same,GLC,[5],180.4 mg/dL
same,IP,[5],8.7 mg/dL
same,K,[5],4.3 meq/L
same,LDH,[5],276.8 IU/L
same,Na,[5],139.4 meq/L
same,PL,[5],178.2 mg/dL
same,RALB,[5],2.9 g/dL
same,TBIL,[5],0.012 mg/dL
same,TC,[5],89.8 mg/dL
same,TG,[5],164.2 mg/dL
same,TP,[5],5.7 g/dL
same,gamma-GTP,[5],0.7 IU/L
same,TERMINAL_BW,[6],206.7 g
same,Bas,[6],0%
same,Eos,[6],0.2%
same,Hb,[6],12.6 g/dL
same,Ht,[6],38.9%
same,Lym,[6],75.6%
same,MCH,[6],20.6 pg
same,MCHC,[6],32.4%
same,MCV,[6],63.6 fL
same,Mono,[6],4.2%
same,Neu,[6],18.8%
same,Plat,[6],136.5 x10_4/uL
same,RBC,[6],612 x10_4/ul
same,Ret,[6],9%
same,WBC,[6],135.9 x10_2/uL
same,KIDNEY_L,[6],0.9 g
same,KIDNEY_R,[6],0.9 g
same,KIDNEY_TOTAL,[6],1.7 g
same,LIVER,[6],8.9 g
same,A/G,[6],1
same,ALP,[6],1605.4 IU/L
same,ALT,[6],37.2 IU/L
same,AST,[6],71.4 IU/L
same,BUN,[6],8.3 mg/dL
same,CRE,[6],0.1 mg/dL
same,Ca,[6],10.6 mg/dL
same,Cl,[6],104.8 meq/L
same,DBIL,[6],0.002 mg/dL
same,GLC,[6],175.4 mg/dL
same,IP,[6],9.2 mg/dL
same,K,[6],4.3 meq/L
same,LDH,[6],203.2 IU/L
same,Na,[6],141 meq/L
same,PL,[6],165.6 mg/dL
same,RALB,[6],2.9 g/dL
same,TBIL,[6],0.022 mg/dL
same,TC,[6],85.6 mg/dL
same,TG,[6],83.5 mg/dL
same,TP,[6],5.7 g/dL
same,gamma-GTP,[6],0.8 IU/L
same,TERMINAL_BW,[7],206.7 g
same,Bas,[7],0%
same,Eos,[7],0.6%
same,Hb,[7],12.7 g/dL
same,Ht,[7],39%
same,Lym,[7],75.8%
same,MCH,[7],20.6 pg
same,MCHC,[7],32.4%
same,MCV,[7],63.6 fL
same,Mono,[7],3.4%
same,Neu,[7],19.4%
same,Plat,[7],125.7 x10_4/uL
same,RBC,[7],613.8 x10_4/ul
same,Ret,[7],8.6%
same,WBC,[7],108.2 x10_2/uL
same,KIDNEY_L,[7],0.9 g
same,KIDNEY_R,[7],0.9 g
same,KIDNEY_TOTAL,[7],1.8 g
same,LIVER,[7],9 g
same,A/G,[7],1
same,ALP,[7],1396.4 IU/L
same,ALT,[7],34.4 IU/L
same,AST,[7],70.4 IU/L
same,BUN,[7],9.8 mg/dL
same,CRE,[7],0.1 mg/dL
same,Ca,[7],10.6 mg/dL
same,Cl,[7],104 meq/L
same,DBIL,[7],0.002 mg/dL
same,GLC,[7],179.4 mg/dL
same,IP,[7],10.6 mg/dL
same,K,[7],4.6 meq/L
same,LDH,[7],248.8 IU/L
same,Na,[7],142.5 meq/L
same,PL,[7],150.4 mg/dL
same,RALB,[7],2.8 g/dL
same,TBIL,[7],0.004 mg/dL
same,TC,[7],79.2 mg/dL
same,TG,[7],95 mg/dL
same,TP,[7],5.6 g/dL
same,gamma-GTP,[7],0.6 IU/L
same,TERMINAL_BW,[8],218 g
same,Bas,[8],0%
same,Eos,[8],0%
same,Hb,[8],12.8 g/dL
same,Ht,[8],39.2%
same,Lym,[8],81.2%
same,MCH,[8],20 pg
same,MCHC,[8],32.6%
same,MCV,[8],61.6 fL
same,Mono,[8],3%
same,Neu,[8],14.6%
same,Plat,[8],124.3 x10_4/uL
same,RBC,[8],636.8 x10_4/ul
same,Ret,[8],8.1%
same,WBC,[8],127.1 x10_2/uL
same,KIDNEY_L,[8],0.9 g
same,KIDNEY_R,[8],0.9 g
same,KIDNEY_TOTAL,[8],1.9 g
same,LIVER,[8],11.2 g
same,A/G,[8],1
same,ALP,[8],1595.4 IU/L
same,ALT,[8],38.6 IU/L
same,AST,[8],69.4 IU/L
same,BUN,[8],16.7 mg/dL
same,CRE,[8],0.2 mg/dL
same,Ca,[8],11 mg/dL
same,Cl,[8],103.1 meq/L
same,DBIL,[8],0.002 mg/dL
same,GLC,[8],171.4 mg/dL
same,IP,[8],7.4 mg/dL
same,K,[8],4.7 meq/L
same,LDH,[8],188.8 IU/L
same,Na,[8],141.6 meq/L
same,PL,[8],181.2 mg/dL
same,RALB,[8],2.8 g/dL
same,TBIL,[8],0 mg/dL
same,TC,[8],92 mg/dL
same,TG,[8],209.4 mg/dL
same,TP,[8],5.5 g/dL
same,gamma-GTP,[8],0.9 IU/L

# — ChEMBL document CHEMBL3885861, “Open TG-GATES”
